Results on eleven compounds are retold here after BindingDB's records for doi:10.1021/co200147y (Bristol-Myers Squibb Research and Development, 2012).

Several values for one entry are separate records, joined by “and”; a condition that tells them apart may be missing. Equal values may be shown once.

Sequence of Cannabinoid receptor 1 (P21554 whole entry): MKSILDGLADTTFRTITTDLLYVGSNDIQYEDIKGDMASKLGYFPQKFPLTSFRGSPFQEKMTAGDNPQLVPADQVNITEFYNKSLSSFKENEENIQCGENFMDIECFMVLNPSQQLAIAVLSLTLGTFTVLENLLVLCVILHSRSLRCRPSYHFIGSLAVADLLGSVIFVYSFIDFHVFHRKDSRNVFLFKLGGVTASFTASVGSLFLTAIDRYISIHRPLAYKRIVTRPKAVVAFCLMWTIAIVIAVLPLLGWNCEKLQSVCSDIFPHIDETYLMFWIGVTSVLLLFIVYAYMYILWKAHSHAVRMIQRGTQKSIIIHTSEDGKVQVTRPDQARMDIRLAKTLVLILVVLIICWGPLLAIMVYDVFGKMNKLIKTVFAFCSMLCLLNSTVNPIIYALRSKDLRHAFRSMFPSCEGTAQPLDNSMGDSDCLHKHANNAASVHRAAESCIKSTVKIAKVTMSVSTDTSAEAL

The target in this assay is Cannabinoid receptor 1 (Homo sapiens, UniProt P21554). Briefly: Inhibition Assay. The source says:
Inhibition assay using hCB1.
A word on the IC50: it is the concentration that gives 50% inhibition. High values mean a need for much substance, low ones inhibition by little substance. Regarding `O=C(NCCCc1ccccc1)c1cnn(-c2cccc(Cl)c2)c1-c1ccc(-c2ccccc2)cc1` [hCB1 Inhibitor, 2{1,1,1}], the IC50 is 410 nM and 200 nM.

`O=C(NCCCc1ccccc1)c1cnn(-c2cccc3ccccc23)c1-c1ccc(-c2ccccc2)cc1` [hCB1 Inhibitor, 2{1,1,3}]: the IC50 stood at 90 nM.

Consider `Cc1ccccc1-n1ncc(C(=O)NCCCc2ccccc2)c1-c1ccc(-c2ccccc2)cc1` [hCB1 Inhibitor, 2{1,1,6}], for which the concentration for half-maximal inhibition (IC50) was 200 nM. This IC50 lies about 2.2-fold higher than the previous one. The result for `Cc1cccc(-n2ncc(C(=O)NCCCc3ccccc3)c2-c2ccc(-c3ccccc3)cc2)c1` [hCB1 Inhibitor, 2{1,1,7}] reads 200 nM; that for `Cc1cccc(-n2ncc(C(=O)NCCCc3ccccc3)c2-c2ccc(-c3ccccc3)cc2)c1C` [hCB1 Inhibitor, 2{1,1,8}], 200 nM and 40 nM.

With `O=C(NCC1CC1)c1cnn(-c2cccc(Cl)c2)c1-c1ccc(-c2ccccc2)cc1` [hCB1 Inhibitor, 2{5,1,1}], the IC50 is 270 nM and 190 nM.

The compound `Cc1ccccc1-n1ncc(C(=O)NCC2CC2)c1-c1ccc(-c2ccccc2)cc1` [hCB1 Inhibitor, 2{5,1,6}] gave an IC50 of 390 nM. Take `Cc1cccc(-n2ncc(C(=O)NCC3CC3)c2-c2ccc(-c3ccccc3)cc2)c1` [hCB1 Inhibitor, 2{5,1,7}]: the IC50 amounted to 620 nM. This IC50 lies about 1.6-fold higher than the previous one.

As to `CCCCNC(=O)c1cnn(-c2cccc(Cl)c2)c1-c1ccc(-c2ccccc2)cc1` [hCB1 Inhibitor, 2{6,1,1}], the IC50 was 500 nM and 350 nM. The result for `CCCCNC(=O)c1cnn(-c2ccccc2C)c1-c1ccc(-c2ccccc2)cc1` [hCB1 Inhibitor, 2{6,1,6}] reads 2800 nM; that for `CCCCNC(=O)c1cnn(-c2cccc(C)c2)c1-c1ccc(-c2ccccc2)cc1` [hCB1 Inhibitor, 2{6,1,7}], 2700 nM.
